Source: patent US9758492B2, “IDO inhibitors” (Bristol-Myers Squibb Company, priority 2013, dated 2017)

Key:
IDO [1] = target: T1, IDO (Homo sapiens, UniProt P14902); assay: LLE_IDO_ABS_DR (IDO assay)
IDO [2] = target: T1, IDO; assay: Kynurenine assay in Hela cells stimulated with IFN-γ to express IDO; assay type: cell-based; set-up: endogenous in cells; host or cells: HeLa (ATCC CCL-2), stimulated with human recombinant IFN-gamma; conditions: 20 h, read-out: Hela Kyurenine (IC50)
Procedure: IFNg (R&D, 28-IF-100)—resuspend at 10 ug/mL in PBS with 0.1% BSA 30% TCA
Ehrlich reagent (2% w/v p-dimethylaminobenzaldehyde in glacial acetic acid)
Cell Titer 96 Aqueous Non-Radioactive Cell Proliferation Assay, MTS (Promega, Cat # G5430)
Cell Lines and Culture Conditions
Hela cancer cell lines were acquired from the American Type Culture Collection. Cells were maintained in phenol red free-RPMI1640 medium containing high glucose and L-glutamine (Invitrogen) supplemented with 10% fetal bovine serum (FBS; Invitrogen). Cell cultures were incubated at 37° C., 5% CO2, and 100% humidity.
Cell Treatment and Kynurenine Assay
Hela cells were seeded on 96-well plates (40,000 cells per well) and allowed to adhere for 5-6 hours. Cells were then treated with vehicle (DMSO) or with IDO inhibitor at a top dose of 30 μM (3-fold dilution all the way down to 1.5 nM). A final concentration of 100 ng/mL of human recombinant IFN-γ (R&D, 28-IF-100) was immediately added to the cells to stimulate IDO expression. Treated cells were then incubated for 20 hours at 37° C. At the end of the 20 h incubation, reactions were terminated by the addition of 30% TCA to each well. Plates were incubated for 30 minutes at 50° C. to hydrolyze N-formylkynurenine to kynurenine. Cells were centrifuged 10 minutes at 2400 rpm. 100 ul of supernatants were transferred to new 96 flat well plates and mixed with 100 ul Ehrlich reagent. The resulting solution was incubated 10 minutes at RT. Absorbance at 490 nm was read using Spectra Max 384 (Molecular Devices).

T1 sequence (P14902 whole entry): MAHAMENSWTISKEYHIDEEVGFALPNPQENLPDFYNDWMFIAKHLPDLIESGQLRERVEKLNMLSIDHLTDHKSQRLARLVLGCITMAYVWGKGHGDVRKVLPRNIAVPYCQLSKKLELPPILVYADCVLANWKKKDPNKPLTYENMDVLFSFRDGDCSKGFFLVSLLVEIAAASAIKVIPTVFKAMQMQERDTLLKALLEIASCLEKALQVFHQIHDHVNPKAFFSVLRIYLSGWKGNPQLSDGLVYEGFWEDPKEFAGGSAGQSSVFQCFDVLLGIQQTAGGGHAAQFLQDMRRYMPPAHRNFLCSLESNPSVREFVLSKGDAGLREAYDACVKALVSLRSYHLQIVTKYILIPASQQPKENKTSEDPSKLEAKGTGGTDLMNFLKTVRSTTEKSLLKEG

Row | SMILES | IC50 (IDO [1]) [nM] | IC50 (IDO [2]) [nM]
1 | Cc1cccc(NC(=O)Nc2cc(-c3ccccc3-c3nnn[nH]3)ccc2N(C)C2CCCCC2)c1 [Example 211, 1-(4-(cyclohexyl(methyl)amino)-2′-(1H-tetrazol-5-yl)biphenyl-3-yl)-3-m-tolylurea] | 490 | 110
2 | COc1ccc(-c2ccc(N(CC(F)F)CC3CC3)c(NC(=O)Nc3ccc(C)cc3)c2)cc1C(=O)O [Example 62, 4′-((cyclopropylmethyl) (2,2-difluoroethyl)amino)-4-methoxy-3′-(3-p-tolylureido)biphenyl-3-carboxylic acid] | 4120 | 2280
3 | COc1ccc(-c2ccc(N(C)C3CCCCC3)c(NC(=O)Nc3ccccc3Cl)c2)cc1C(=O)O [Example 42, 3′-(3-(2-chlorophenyl)ureido)-4′-(cyclohexyl(methyl)amino)-4-methoxybiphenyl-3-carboxylic acid] | – | 1170
4 | Cc1ccc(NC(=O)Nc2cc(-c3ccccc3-c3nnn[nH]3)ccc2N2CCC[C@@H]3CCCC[C@@H]32)cc1 [Example 47, 1-(4-((4aS,8aS)-octahydroquinolin-1(2H)-yl)-2′-(1H-tetrazol-5-yl)biphenyl-3-yl)-3-p-tolylurea] | 40 | 10
5 | Cc1ccc(NC(=O)Nc2cc(-c3ccccc3-c3nnn[nH]3)ccc2N(C)C2CCCCC2)cc1 [Example 44, 1-(4-(cyclohexyl (methyl)amino)-2′-(1H-tetrazol-5-yl)biphenyl-3-yl)-3-p-tolylurea] | 7.93 | 1.72
6 | Cc1ccc(NC(=O)Nc2cc(-c3ccccc3-c3nnn[nH]3)ccc2NC2CCCCC2)cc1 [Example 46, 1-(4-(cyclohexylamino)-2′-(1H-tetrazol-5-yl)biphenyl-3-yl)-3-p-tolylurea] | 130 | 90
7 | COc1ccc(-c2ccc(N(C)C3CCCCC3)c(NC(=O)Nc3ccc(C)cc3)c2)cc1C(=O)O [Example 43, 4′-(cyclohexyl (methyl)amino)-4-methoxy-3′-(3-p-tolylureido)biphenyl-3-carboxylic acid] | – | 1430
8 | COCCN(CCOC)c1ccc(-c2ccccc2-c2nnn[nH]2)cc1NC(=O)Nc1ccc(C)cc1 [Example 57, 1-(4-(bis(2-methoxyethyl)amino)-2′-(1H-tetrazol-5-yl)biphenyl-3-yl)-3-p-tolylurea] | 270 | 220
9 | Cc1ccc(NC(=O)Nc2cc(-c3ccccc3C(=O)O)ccc2NC2CCCCC2)cc1 [Example 48, 4′-(cyclohexyl-amino)-3′-(3-p-tolylureido)biphenyl-2-carboxylic acid] | 500 | 850
10 | Cc1ccc(NC(=O)Nc2cc(-c3ccccc3C(=O)O)ccc2N2CCC[C@@H]3CCCC[C@@H]32)cc1 [Example 49, 4′-((4aS,8aS)-octahydroquinolin-1(2H)-yl)-3′-(3-p-tolylureido)biphenyl-2-carboxylic acid] | 160 | 180
11 | CN(c1ccc(-c2ccccc2C(=O)O)cc1NC(=O)Nc1ccccc1F)C1CCCCC1 [Example 219, 4′-(cyclohexyl(methyl)amino)-3′-(3-(2-fluorophenyl)ureido) biphenyl-2-carboxylic acid] | 80 | 10
12 | CCN(c1ccc(-c2ccccc2-c2nnn[nH]2)cc1NC(=O)Nc1ccc(C)cc1)C1CCCCC1 [Example 216, 1-(4-(cyclohexyl(ethyl)amino)-2′-(1H-tetrazol-5-yl)biphenyl-3-yl)-3-p-tolylurea] | 0.835 | 0.831
13 | CN(c1ccc(-c2ccccc2C(=O)O)cc1NC(=O)Nc1ccccc1Cl)C1CCCCC1 [Example 215, 3′-(3-(2-chlorophenyl)ureido)-4′-(cyclohexyl(methyl)amino) biphenyl-2-carboxylic acid] | 1280 | 120
14 | CCCN(CC1CC1)c1ccc(-c2ccccc2C(=O)O)cc1NC(=O)Nc1ccc(C)cc1 [Example 58, 4′-((cyclopropylmethyl) (propyl)amino)-3′-(3-p-tolylureido) biphenyl-2-carboxylic acid] | 100 | 60
15 | Cc1ccc(NC(=O)Nc2cc(-c3ccccc3C(=O)O)ccc2N(C)C2CCOCC2)cc1 [Example 51, 4′-(methyl(tetra-hydro-2H-pyran-4-yl)amino)-3′-(3-p-tolylureido)biphenyl-2-carboxylic acid] | – | 2130
16 | Cc1ccc(NC(=O)Nc2cc(-c3ccccc3-c3nnn[nH]3)ccc2N(C)C2CCCC2)cc1 [Example 3, 1-(4-(Cyclopentyl(methyl)amino)-2′-(1H-tetrazol-5-yl)biphenyl-3-yl)-3-p-tolylurea] | 60 | 10

Row | SMILES | IC50 (IDO [1]) [nM] | IC50 (IDO [2]) [nM]
17 | CN(c1ccc(-c2ccccc2-c2nnn[nH]2)cc1NC(=O)Nc1ccccc1C(F)(F)F)C1CCCCC1 [Example 212, 1-(4-(cyclohexyl(methyl)amino)-2′-(1H-tetrazol-5-yl)biphenyl-3-yl)-3-(2-(trifluoromethyl)phenyl)urea] | 1270 | 200
18 | Cc1ccc(NC(=O)Nc2cc(-c3ccccc3C(=O)O)c(F)cc2N(CC(F)F)CC2CC2)cc1 [Example 224, 4′-((cyclopropylmethyl)(2,2-difluoroethyl)amino)-2′-fluoro-5′-(3-p-tolylureido)biphenyl-2-carboxylic acid] | 640 | 440
19 | CN(c1ccc(-c2ccccc2-c2nnn[nH]2)cc1NC(=O)Nc1ccccc1Cl)C1CCCCC1 [Example 45, 1-(2-chlorophenyl)-3-(4-(cyclohexyl (methyl)amino)-2′-(1H-tetrazol-5-yl)biphenyl-3-yl)urea] | 60 | 10
20 | COCCN(CCOC)c1ccc(-c2ccccc2C(=O)O)cc1NC(=O)Nc1ccc(C)cc1 [Example 56, 4′-(bis(2-methoxyethyl)amino)-3′-(3-p-tolylureido)biphenyl-2-carboxylic acid] | 3590 | 3120
21 | COC(CN(C)c1ccc(-c2ccccc2-c2nnn[nH]2)cc1NC(=O)Nc1ccc(C)cc1)OC [Example 55, 1-(4-((2,2-dimethoxyethyl) (methyl)amino)-2′-(1H-tetrazol-5-yl)biphenyl-3-yl)-3-p-tolylurea] | 230 | 110
22 | Cc1ccc(NC(=O)Nc2cc(-c3ccccc3-c3nnn[nH]3)ccc2N(C)C2CCOCC2)cc1 [Example 50, 1-(4-(methyl(tetra-hydro-2H-pyran-4-yl)amino)-2′-(1H-tetrazol-5-yl)biphenyl-3-yl)-3-p-tolylurea] | 310 | 60
23 | Cc1ccc(NC(=O)Nc2cc(-c3ccccc3-c3nnn[nH]3)c(F)cc2N(C)C2CCCCC2)cc1 [Example 222, 1-(4-(cyclohexyl(methyl)ami-no)-6-fluoro-2′-(1H-tetrazol-5-yl)biphenyl-3-yl)-3-p-tolylurea] | 10 | 2.63
24 | COc1ccc(-c2cc(NC(=O)Nc3ccc(C)cc3)c(N(C)C3CCCCC3)cc2F)cc1C(=O)O [Example 220, 4′-(cyclohexyl(methyl)ami-no)-2′-fluoro-4-methoxy-5′-(3-p-tolylureido)biphenyl-3-carboxylic acid] | 1470 | 440
25 | Cc1ccc(NC(=O)Nc2cc(-c3ccccc3C(=O)O)ccc2N(C)C2CCCCC2)cc1 [Example 213, 4′-(cyclohexyl(methyl)amino)-3′-(3-p-tolylureido)biphenyl-2-carboxylic acid] | 10 | 6.56
26 | CCCN(CC1CC1)c1ccc(-c2ccccc2-c2nnn[nH]2)cc1NC(=O)Nc1ccc(C)cc1 [Example 59, 1-(4-((cyclopropylmethyl) (propyl)amino)-2′-(1H-tetrazol-5-yl)biphenyl-3-yl)-3-p-tolylurea] | 20 | 10
27 | CN(c1ccc(-c2ccccc2C(=O)O)cc1NC(=O)Nc1ccccc1)C1CCCCC1 [Example 218, 4′-(cyclohexyl(methyl)amino)-3′-(3-phenylureido)biphenyl-2-carboxylic acid] | 490 | 90
28 | Cc1ccc(NC(=O)Nc2cc(-c3ccccc3C(=O)O)ccc2N(CC(F)F)CC2CC2)cc1 [Example 61] | 510 | 700
29 | Cc1ccc(NC(=O)Nc2cc(-c3ccccc3C(=O)O)c(F)cc2N(C)C2CCCCC2)cc1 [Example 221, 4′-(cyclohexyl(methyl)ami-no)-2′-fluoro-5′-(3-p-tolylureido)biphenyl-2-carboxylic acid] | 9.05 | 6.56
30 | CN(c1ccc(-c2ccccc2-c2nnn[nH]2)cc1NC(=O)Nc1ccc(C(F)(F)F)cc1)C1CCCCC1 [Example 2, 1-(4-(Cyclohexyl(methyl)amino)-2′-(1H-tetrazol-5-yl)biphenyl-3-yl)-3-(4-(trifluoromethyl)phenyl)urea] | 90 | 20
31 | COC(CN(C)c1ccc(-c2ccccc2C(=O)O)cc1NC(=O)Nc1ccc(C)cc1)OC [Example 54, 4′-((2,2-dimethoxyethyl) (methyl)amino)-3′-(3-p-tolylureido) biphenyl-2-carboxylic acid] | 300 | 80
